Test results from patent US20230399341A1, “7-PHENYL SUBSTITUTED 2-AMINOQUINAZOLINE INHIBITORS OF HPK1” (MERCK SHARP & DOHME LLC, priority 2020, published 2023).

Each compound was assayed against T1, Human HPK1, catalytic domain (Homo sapiens, UniProt Q92918) (assay: HPK1-SLP76 TR-FRET Assay). Conditions: 75 pM HPK1, ATP 10 uM, SLP76 10 nM, 30 min pre-incubation, 60 min reaction.
T1 sequence (Q92918 1-346): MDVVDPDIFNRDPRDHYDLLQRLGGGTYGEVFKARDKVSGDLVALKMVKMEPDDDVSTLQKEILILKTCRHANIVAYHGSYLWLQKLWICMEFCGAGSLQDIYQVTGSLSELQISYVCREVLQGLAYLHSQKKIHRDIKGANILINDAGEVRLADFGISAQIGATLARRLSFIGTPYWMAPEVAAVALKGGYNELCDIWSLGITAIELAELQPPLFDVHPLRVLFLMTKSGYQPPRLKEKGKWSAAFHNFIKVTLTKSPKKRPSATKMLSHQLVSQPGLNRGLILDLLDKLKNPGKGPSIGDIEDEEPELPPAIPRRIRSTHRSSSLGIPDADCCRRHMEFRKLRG
Format: biochemical

SMILES | IC50 [nM]
CNC(=O)C1CCc2cc(Nc3ncc4cc(F)c(-c5cnc6c(c5C)NCCO6)cc4n3)ccc21 (single isomer, unassigned) [Compound 1-118, (R or S)-5-{[6-fluoro-7-(8-methyl-2,3-dihydro-1H-pyrido[2,3-b][1,4]oxazin-7-yl)quinazolin-2-yl]amino}-N-methyl-2,3-dihydro-1H-indene-1-carboxamide] | 0.0363
COc1cc2c(cc1Nc1ncc3ccc(-c4ccc(S(N)(=O)=O)cc4C)cc3n1)CNCC2 [Compound 1-32, 4-{2-[(6-methoxy-1,2,3,4-tetrahydroisoquinolin-7-yl)amino]quinazolin-7-yl}-3-methylbenzene-1-sulfonamide] | 108
COc1cc2c(cc1Nc1ncc3ccc(-c4cnn(C)c4)cc3n1)CNCC2 [Compound 1-34, N-(6-methoxy-1,2,3,4-tetrahydroisoquinolin-7-yl)-7-(1-methyl-1H-pyrazol-4-yl)quinazolin-2-amine] | 1.49
COc1cc2c(cc1Nc1ncc3ccc(-c4cnc5c(c4C)NCCO5)cc3n1)CN(C)CC2 [Compound 1-4, N-(6-methoxy-2-methyl-1,2,3,4-tetrahydroisoquinolin-7-yl)-7-(8-methyl-2,3-dihydro-1H-pyrido[2,3-b][1,4]oxazin-7-yl)quinazolin-2-amine] | 1.51

Other lines, results leading:

IC50 [nM] | SMILES
0.0505 | Cc1c(-c2cc3nc(Nc4ccc(C5CCN(C)C5=O)cc4)ncc3c(N)c2F)cnc2c1NCCO2 (single isomer, unassigned) [Compound 2-146, (R or S)-3-(4-{[5-amino-6-fluoro-7-(8-methyl-2,3-dihydro-1H-pyrido[2,3-b][1,4]oxazin-7-yl)quinazolin-2-ylamino}phenyl)-1-methylpyrrolidin-2-one]
807 | COc1cc2c(cc1Nc1ncc3ccc(N4CC5CCS(=O)(=O)C5C4)cc3n1)CN(C)CC2 (racemic) [Compound 3-60, (±)-5-{2~-[(6-methoxy-2-meth-yl-1,2,3,4-tetrahydroisoquinolin-7-yl)amino]quinazolin-7-yl}-hexahydro-1lambda~6~-thieno-[2,3-c]pyrrole-1,1(2H)-dione]
0.0213 | COc1cc2c(cc1Nc1ncc3c(N)c(F)c(-c4cnc5c(c4C)NCCO5)c(Cl)c3n1)CN(C)CC2 (single isomer, unassigned) [Compound 2-93, (+ or −)-8-chloro-6-fluoro-N~2~-(6-methoxy-2-methyl-1,2,3,4-tetrahydroisoquinolin-7-yl)-7-(8-methyl-2,3-dihydro-1H-pyrido[2,3-b][1,4]oxazin-7-yl)quinazoline-2,5-diamine]
0.0305 | Cc1c(-c2cc3nc(Nc4ccc5c(c4)C4CC5CN4C)ncc3c(N)c2F)cnc2c1NCCO2 (racemic) [Compound 2-79, (R,S and S,R)-6-fluoro-N2-(2-methyl-1,2,3,4-tetrahydro-1,4-methanoisoquinolin-7-yl)-7-(8-methyl-2,3-dihydro-1H-pyrido[2,3-b][1,4]oxazin-7-yl)quinazoline-2,5-diamine]
92.6 | COc1cc2c(cc1Nc1ncc3ccc(N4CC5(CCCNCC5)OC4=O)cc3n1)CN(C)CC2 (racemic) [Compound 3-8, (S and R)-3-{2-[(6-methoxy-2-methyl-1,2,3,4-tetrahydroiso-quinolin-7-yl)amino]quinazolin-7-yl}-1-oxa-3,8-diazaspiro[4.6]-undecan-2-one]
3.67 | Cc1c(-c2c(F)c(N)c3cnc(Nc4cc5c(cc4F)CCN(C)C5)nc3c2Cl)cnc2c1NCCO2 [Compound 2-184, (+ and −)-8-chloro-6-fluoro-N~2~-(6-fluoro-2-methyl-1,2,3,4-tetrahydroisoquinolin-7-yl)-7-(8-methyl-2,3-dihydro-1H-pyrido[2,3-b][1,4]oxazin-7-yl)quinazoline-2,5-diamine]
224 | COc1cc2c(cc1Nc1ncc3ccc(Oc4ccc(N5CCN(C(C)=O)CC5)cc4)cc3n1)CN(C)CC2 [Compound 4-7, 1-{4-[4-({2-[(6-methoxy-2-methyl-1,2,3,4-tetrahydro-isoquinolin-7-yl)amino]-quinazolin-7-yl}oxy)phen-yl]piperazin-1-yl}ethan-1-one]
